We go through three molecules from patent US8399520B2, “Selective estrogen receptor modulator” (Eisai R&D Management Co., Ltd., priority 2002, dated 2013).

Data set [1] has as its system ovariectomized rats. Put plainly: Ovariectomized rats: bone density of femur and fifth lumbar vertebrae. It is filed as in vivo, rat. As to conditions: for Bone Mineral Density, Distal femur / Bone Mineral Density, Lumber 5 / Bone Mineral Density, Whole femur: OVX rats, 8 weeks; for Effect on bone mineral density of femur and fifth lumbar vertebrae (in words): ovariectomized rats, eight weeks after ovariectomy, compared with sham-operated rats. An excerpt:
(§1) Ten weeks old Female Fischer rats (F344/N, Japan SLC, Shizuoka, Japan) were used. Rats were grouped to eliminate the effect of body weight between each group and housed with free access to food and water. Animals were anesthetized with Nembutal (Abbott Laboratories, Chicago, Ill.) and the ovaries were removed. In sham-operated group, ovaries were only touched with tweezers. Administration of compounds was started one day after the operation.
(§2) Estradiol (Sigma-Aldrich, St. Louis, Mo.) was dissolved in DMSO to 150 mg/mL then diluted with sesame oil to 0.15 mg/mL. The compounds in Examples 736 and 814, and Raloxifene were suspended in sesame oil to 5, 5 and 1.5 mg/mL, respectively. Samples were divided into aliquots for daily administration and preserved at −18° C. until use.
(§3) The samples were orally administered at 2 mL/kg. Administration was carried out once a day from Monday to Friday for 8 weeks.
After animals were sacrificed by decapitation, left femur and the fifth lumbar vertebrae were removed. The bone density was measured by using QDR-1000/W (Ho logic Inc., Bedford, Mass.).

For data set [2], the system named is ovariectomized rats. Put plainly: Ovariectomized rats: uterus wet weight. It is filed as in vivo, rat. As to conditions: rat, in vivo.
Excerpt: as §1, §2, §3
After animals were sacrificed by decapitation, uterus was removed and adipose tissue and vagina was separated from uterus prior to uterus weight measurement.

Data set [3] deals with T1, estrogen receptor derived from bovine uterus (Bos taurus, UniProt P49884).
T1 construct: estrogen receptor derived from bovine uterus was diluted with the assay buffer solution so that 10 to 20 μg total protein was present; from tissue; host or cells: bovine uterus
T1 sequence (P49884 1-596): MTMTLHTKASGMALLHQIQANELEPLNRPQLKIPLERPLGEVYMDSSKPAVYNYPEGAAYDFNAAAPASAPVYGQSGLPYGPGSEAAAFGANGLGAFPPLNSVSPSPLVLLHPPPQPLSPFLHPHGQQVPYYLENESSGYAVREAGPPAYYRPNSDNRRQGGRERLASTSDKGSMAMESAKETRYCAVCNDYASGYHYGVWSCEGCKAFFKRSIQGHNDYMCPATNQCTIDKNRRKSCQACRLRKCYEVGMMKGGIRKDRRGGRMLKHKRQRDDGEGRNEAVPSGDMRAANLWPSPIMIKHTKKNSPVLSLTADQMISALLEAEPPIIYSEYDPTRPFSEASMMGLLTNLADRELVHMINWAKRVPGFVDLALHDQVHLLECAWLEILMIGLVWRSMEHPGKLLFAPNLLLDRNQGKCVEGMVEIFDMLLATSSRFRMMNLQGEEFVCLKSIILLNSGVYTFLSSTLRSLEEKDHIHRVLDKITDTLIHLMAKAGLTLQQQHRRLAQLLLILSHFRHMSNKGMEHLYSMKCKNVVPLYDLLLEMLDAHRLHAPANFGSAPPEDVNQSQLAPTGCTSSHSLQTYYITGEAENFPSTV
Put plainly: In vitro estrogen receptor binding assay. As to conditions: read-out: Estrogen receptor binding affinity: Ki. The method, then:
The binding affinity of the compound according to the present invention to estrogen receptor was measured using an in vitro estrogen receptor binding assay. The binding affinity measures the ability of the compound according to the present invention to remove [^3H]-estradiol from estrogen receptor derived from bovine uterus. The following materials were used in this assay: (1) the assay buffer solution was 20 mM Tris/HCl (pH 7.5) containing 1 mM dithiothreitol (DTT), 1 mM EDTA and 10% glycerol; (2) radioactive ligand was [^3H]-estradiol purchased from Amersham Life Science; (3) the cold ligand was diethylstilbestrol purchased from sigma (Sigma); and (4) the estrogen receptor was derived from bovine uterus. The compound to be tested was prepared as a 10% DMSO solution. [^3H]-estradiol was dissolved in the assay buffer solution so as to obtain a final concentration of 1 nM. […] Each plate contains total binding, non-specific binding and the binding which were not inhibited by various concentrations of the compound. The plate was incubated for 1 hour at room temperature. […] These mixtures were centrifuged, and the supernatant thereof was evaluated for its radioactivity using a liquid scintillation counter. Specific binding was calculated by subtracting non-specific binding dpm (counts remaining in the supernatant obtained by centrifugal separation of a reaction mixture containing estrogen receptor derived from bovine uterus, radioactive ligand and excess cold ligand) from the total binding dpm (counts remaining in the supernatant obtained by centrifugal separation of a reaction mixture containing estrogen receptor derived from bovine uterus and radioactive ligand only). The effectiveness of the compound was evaluated by Ki. […] C is the concentration of [^3H]-estradiol in the reaction mixture, and Kd is the [^3H]-estradiol dissociation constant. The Kd was determined by Scatchard analysis. That is to say, various concentrations of [^3H]-estradiol were used to measure the concentration of specifically bound [^3H]-estradiol, which served as the horizontal axis, the value which was obtained by dividing the concentration of specifically bound [^3H]-estradiol by the concentration [^3H]-estradiol not bound to the receptor served as the vertical axis to produce a plot, and the negative value of the inverse of the slope of the resulting straight line was used as Kd.

For data set [4], the system named is ovariectomized rats. As to the kind of experiment: Bone resorption in ovariectomized rats: deoxypyridinoline in urine. It is filed as in vivo, rat. As to conditions: for Deoxypyridinoline, 5 weeks / Deoxypyridinoline, 8 weeks: OVX rats, urine; for Effect on excretion of deoxypyridinoline in urine (in words): ovariectomized rats, after 5 and 8 weeks administrations.
Excerpt: as §1, §2, §3
Urine was gathered overnight (17 hours) using the metabolic cage under fasting. The amount of urinary deoxypyridinoline was measured with ELISA kit, Osteorincs-DPD (Sumitomo Seiyaku Biomedical Co., Ltd., Osaka, Japan) and evaluated as total amount produced in 17 hours or as the amount per 1 mg of creatinine.

Data set [5] concerns MCF-7 breast cancer cells. Put plainly: MCF-7 growth analysis (estrogen agonist and antagonist activity, MTT assay). It is filed as cell-based. The settings on record: Homo sapiens; for activity at 0.1 µM: MCF7, MCF-7, 72 hours, growth rate of diluent control = 100, of 17β-estradiol (1 nM) = 200, read-out: Agonist activity: growth rate (100 nM test compound); for IC50: MCF7, MCF-7 growth with 17β-estradiol (10 pM) present simultaneously, 72 hours. Here is the method:
Test Example 2 determines the estrogen agonist and antagonist activities of the compound according to the present invention in reproduction system cells. […] The present test was carried out according to the following procedures. MCF-7 breast cancer cells were cultured in the preservation medium until the compound evaluation. The preservation medium is the MEM (minimum essential medium, phenol red-free, Gibco, ##51200-038) supplemented with 10% (volume/volume) fetal bovine serum (FBS), 2 mM L-glutamine, 1 mM sodium pyruvate, non-essential amino acids (0.1 mM, Gibco, #15240-062), and antibiotic-antimycotic solution ( 1/50 of culture medium volume, Gibco). Five days prior to analysis, the preservation medium was exchanged with analytical medium to which 10% charcoal-stripped fetal bovine serum (charcoal-FBS) was added instead of 10% FBS, so as to deprive the MCF-7 cells of endogenous steroids. Twenty-four hours after exchange to the analytical medium, the MCF-7 cells were removed from the preservation flask using cell isolation medium (trypsin-EDTA solution, Gibco). The cells were washed with analytical medium once, and cell suspension at 50,000 cell/ml was prepared using the analytical medium. The prepared cell suspension was added to a 96 well flat-bottomed microculture at […] (5,000 cells) per well, the cells were cultured in a 5% CO2 incubator for 24 hours at 37° C., to equilibrate the cells after cell transfer. […] The cells were further cultured in the 5% CO2 incubator for 72 hours at 37° C. After culturing, the cell growth was examined by the MTT assay. MTT assay was carried out as the following protocols. MTT solution at 8 mg/ml (MTT dissolved in phosphate saline water buffer) was added to the microculture at 10 μl/well, and the cells were cultured in the 5% CO2 incubator for 30 minutes at 37° C. Thereafter, resulting from the reduction of MTT by the cells, formazan crystals were dissolved by adding a dissolution buffer (400 g/l of an aqueous solution of SDS (50%) and dimethylformamide (50%)) to the microculture at 100 μl/well, and incubated the microculture for more than 4 hours in the dark. For each well of the microculture, the optical density at 590 nm due to the dissolved formazan crystals was measured.

The mark [6] stands for this setting: 10 mg/kg orally once a day Monday to Friday.
Where [7] appears, read: 3 mg/kg orally once a day Monday to Friday.

`CCNCCc1ccc(CN(CC)c2cc(OC)ccc2[C@@H]2CCc3cc(O)ccc3C2)cc1` [Example 736, (R)-6-{2-{Ethyl[4-(2-ethylaminoethyl)benzyl]amino}-4-methoxyphenyl}-5,6,7,8-tetrahydronaphthalen-2-ol]: in the data set on ovariectomized rats [1] (10 mg/kg orally), the “Bone Mineral Density, Distal femur” value came to 0.256 ± 0.002 g/cm^2; the “Bone Mineral Density, Lumber 5” value is given as 0.156 ± 0.003 g/cm^2; the “Bone Mineral Density, Whole femur” value is recorded as 0.241 ± 0.002 g/cm^2. In addition, in the data set on ovariectomized rats [1], the “Effect on bone mineral density of femur and fifth lumbar vertebrae (in words)” value was “preserved bone mineral density at the level in sham-operated rats”. Moreover, the “Effect on uterus wet weight (in words)” value in the data set on ovariectomized rats [2] is “did not influence the wet weight of the uterus at all”. For the same molecule, the inhibition constant (Ki) in data set [3] turned out to be 6 nM. In the data set on ovariectomized rats [4] (setting [6]), the “Deoxypyridinoline, 5 weeks” value is listed as 10.48 ± 0.52 nM/mg/dl and the “Deoxypyridinoline, 8 weeks” value worked out at 15.33 ± 0.78 nM/mg/dl. Further, the “Effect on excretion of deoxypyridinoline in urine (in words)” value in the data set on ovariectomized rats [4] is recorded as “significantly attenuated the excretion of deoxypyridinoline”. In addition, in data set [5], the activity at 0.1 µM came out at 73% and the half-inhibitory concentration (IC50) turned out to be 0.74 nM.
As for `COc1ccc([C@@H]2CCc3cc(O)ccc3C2)c(N(CCO)Cc2ccc(OCC(C)(C)N(C)C)cc2)c1` [Example 814, (R)-6-{2-[[4-(2-Dimethylamino-2-methylpropoxy)benzyl](2-hydroxyethyl)amino]-4-methoxyphenyl}-5,6,7,8-tetrahydronaphthalen-2-ol], in the data set on ovariectomized rats [1] (10 mg/kg orally), the “Bone Mineral Density, Distal femur” value is on record as 0.248 ± 0.002 g/cm^2; the “Bone Mineral Density, Lumber 5” value is given as 0.159 ± 0.001 g/cm^2; the “Bone Mineral Density, Whole femur” value is 0.237 ± 0.002 g/cm^2. Also, the “Effect on bone mineral density of femur and fifth lumbar vertebrae (in words)” value with ovariectomized rats [1] is recorded as “preserved bone mineral density at the level in sham-operated rats”. In addition, the “Effect on uterus wet weight (in words)” value in the data set with ovariectomized rats [2] was “slightly increased uterus wet weight to the same level”. For the same molecule, the Ki in data set [3] was found to be 8.4 nM. Moreover, in the data set on ovariectomized rats [4] (setting [6]), the “Deoxypyridinoline, 5 weeks” value is reported as 11.22 ± 1.12 nM/mg/dl and the “Deoxypyridinoline, 8 weeks” value came to 15.48 ± 0.98 nM/mg/dl. In addition, in the data set with ovariectomized rats [4], the “Effect on excretion of deoxypyridinoline in urine (in words)” value is reported as “significantly attenuated the excretion of deoxypyridinoline”. Also, in data set [5], the activity at 0.1 µM is 95% and the IC50 was 3.23 nM.
On to `O=C(c1ccc(OCCN2CCCCC2)cc1)c1c(-c2ccc(O)cc2)sc2cc(O)ccc12` [Raloxifene, 6-hydroxy-2-(4-hydroxyphenyl)-3-[4-(2-piperidinoethoxy)benzoyl]benz[b]thiophene, reference compound], for which, in the data set on ovariectomized rats [1] (3 mg/kg orally), the “Bone Mineral Density, Distal femur” value worked out at 0.254 ± 0.002 g/cm^2; the “Bone Mineral Density, Lumber 5” value came to 0.160 ± 0.003 g/cm^2; the “Bone Mineral Density, Whole femur” value is on record as 0.239 ± 0.002 g/cm^2. Further, in the data set with ovariectomized rats [2], the “Effect on uterus wet weight (in words)” value is listed as “slightly increased uterus wet weight to the same level”. Besides, in the data set on ovariectomized rats [4] (setting [7]), the “Deoxypyridinoline, 5 weeks” value turned out to be 8.83 ± 0.41 nM/mg/dl and the “Deoxypyridinoline, 8 weeks” value is given as 10.87 ± 1.16 nM/mg/dl.
